Values quoted from earlier work, collected in patent publication US6511813B1, “Elongation factor P (EFP) and assays and antimicrobial treatments related to the same” (Pharmacia & Upjohn Company, priority 1999, dated 2003).

Columns and labels:
peptidyltransferase [1] = system: peptidyltransferase
peptidyltransferase [2] = system: peptidyltransferase; remark: listed apart in the source
[3] = system: fMet-tRNAfMet/ribosome translation complex

Compound	effect on efp reaction (efp)	effect on the peptide-bond synthesis which occurs in the absence of efp (peptidyltransferase [2])	effect on formation of the fMet-tRNAfMet/ribosome translation complex [3]	other results
CC[C@H]1OC(=O)[C@H](C)[C@@H](O[C@H]2C[C@@](C)(OC)[C@@H](O)[C@H](C)O2)[C@H](C)[C@@H](O[C@@H]2O[C@H](C)C[C@H](N(C)C)[C@H]2O)[C@](C)(O)C[C@@H](C)C(=O)[C@H](C)[C@@H](O)[C@]1(C)O [Erythromycin]				effect on the efp reaction (efp; at 5×10^−5): no apparent effect
CCC[C@@H]1C[C@@H](C(=O)N[C@@H]([C@H]2O[C@H](SC)[C@H](O)[C@@H](O)[C@H]2O)[C@@H](C)O)N(C)C1 [Lincomycin]	nullifies the ability of efp to stimulate synthesis of peptide bonds			effect on the puromycin reaction (peptidyltransferase [1]): inhibits; effect on the synthesis of polyphenylalanine (ribosome): marginal effects
[H]/N=C(/N)N[C@H]1[C@H](O)[C@@H](O)[C@H](O[C@@H]2O[C@@H](C)[C@](O)(C=O)[C@H]2O[C@@H]2O[C@@H](CO)[C@H](O)[C@@H](O)[C@@H]2NC)[C@@H](N/C(N)=N\[H])[C@@H]1O [Streptomycin]				inhibition of the efp-mediated reaction (efp; at 2×10^−5 M): potent inhibitor
C=C(NC(=O)C(=C)NC(=O)c1csc(C2=N[C@@H]3c4csc(n4)[C@H]4NC(=O)c5csc(n5)[C@H]([C@](C)(O)[C@@H](C)O)NC(=O)[C@H]5CSC(=N5)/C(=C/C)NC(=O)[C@H]([C@@H](C)O)NC(=O)c5csc(n5)[C@]3(CC2)NC(=O)[C@H](C)NC(=O)C(=C)NC(=O)[C@H](C)NC(=O)[C@H]([C@@H](C)CC)N[C@@H]2C=Cc3c([C@H](C)O)cc(nc3[C@H]2O)C(=O)O[C@@H]4C)n1)C(N)=O [thiostrepton]	inhibit only about 20% or have no effect	no effect	no effect	
neomycin	inhibit only about 20% or have no effect	no effect	no effect	
